Results taken from patent publication US4443448A, “Indane derivatives, pharmaceutical compositions thereof and method of preparation” (priority 1980, dated 1984).
Where two headings read alike, the source gives them in different places.

What was measured:
[1] = tested on: methylphenidate; test: Methylphenidate antagonism in mice; type: in vivo; details: for ED50: Mus musculus, ip
Procedure: Methylphenidate antagonism (ED50 mg/kg i.p.)
(§1) Perspex observation cages without bottom and lid, consisting of 5 sections each measuring 12×25×30 cm.
3×2 mice are used for each dose level. Two or 24 hours after injection of test substance, methylphenidate, 60 mg/kg, is injected s.c. After administration of methylphenidate the mice are placed in the observation cages, 2 in each cage, where they remain for exactly 1 hour. The cages were placed on corrugated paper, the corrugations facing upwards. It is examined whether the mice have been biting the corrugated paper or not. […] If one or more of the control pairs have not been biting, the test has to be repeated on a new set of mice.
The result is stated in fractions: 0/3, 1/3, 2/3 and 3/3 where 0, 1, 2 and 3 are the number of pairs which have not been biting on receipt of the dose in question.

[2] = tested on: amphetamine; test: Amphetamine antagonism in rats; type: in vivo; details: Rattus norvegicus, po, rats, p.o., amphetamine 10 mg/kg base i.v.; read-out: Amphetamine antag. ED50 p.o.
Procedure: Amphetamine antagonism (ED50 mg/kg i.p.)
as §1
The test substance is given p.o. in a reasonable dose based on the determined LD50. Two or 24 hours later an intravaneous injection of amphetamine sulphate 13.6 mg/kg (10 mg/kg amphetamine base) is given, after which the rats are placed individually in the cages. The cages are placed on white corrugated paper. Five rats are used for each dose level. Observations are made after 55 minutes and 65 minutes-observation time: 1 minute. The animals are observed for stereotypy (movements of the head, compulsive gnawing). […] If the compound has full antagonistic effect another group of rats is used at a lower dose. […] The result is stated as fractions: 0/5, 1/5, 2/5, 3/5, 4/5 and 5/5, where 0, 1, 2, 3, 4 and 5 indicate the number of rats which have not shown stereotypy at the dose in question. The results are calculated as ED50 in mg/kg.

[3] = in vivo; parameters: species or system rats; details: for ED50: rat, in vivo, po, rats, p.o., strongest effect within first 6 hours, read-out: Catalep. (catalepsy wire mesh, rat, max, ED50); for Ratio catalep./Amphet.: catalepsy ED50 / amphetamine antagonism ED50
Procedure: A vertical wire netting (50 cm×49 cm). The meshes (openings) of the netting are square (1 cm×1 cm). The wire diameter is 2 mm.
The animals are labeled and used in groups of five. The test substance is administered orally (p.o) at 4 dose levels selected from the fixed dose scale.
The animals are placed in the middle of the vertical wire netting 60, 120, 180, 240, 300 and 360 minutes after administration of the test compound. The animals are considered cataleptic when they remain immobile during a period of 15 seconds.
This cataleptic reaction is designated +. If the rats are "atonic" and passively slide down the wire mesh they are considered not cataleptic. If the animals climb up and down the wire mesh they are nor cataleptic.
In both situations the designation--is used.

[4] = Mouse grid shock (analgesia); type: in vivo; details: mice, minimal effective dose, in mg/kg
Procedure: The mouse grid consists of a perspex cage with wire grid bottom and a perspex lid, on which is placed a microphone sensitive to the frequency of a mouse squeak. A stimulator with motordriven potentiometer applies a sequence of square wave impulses of continuously increasing milliamperage to the grid. Frequency of impulses 20 cycles/sec., duration 5 msec. Milliamperage is recorded on a digital amperemeter connected to the stimulator. Activation of the microphone by a mouse-squeak cuts off the current and the final milliamperage appears on the meter.
Five mice are used for each dose level. Each mouse serves as its own control.
Prior to the administration of test substance the animals are placed on the grid one at a time, and the pain threshold is determined by increasing the current intensity until the mouse squeaks. The pain threshold may be read on the milliamperemeter. Fifteen minutes and 30 minutes after administration of test substance the mice are tested again and the pain thresholds recorded.
Analgesic effect is present, when the pain threshold is increased over the pre-dosing value (control value). The results are stated as % increase in pain threshold calculated on the basis of the control value.
The registration can also be done as an on-line procedure. In this case the punching instruction and punching cards will be provided automatically and the results will be registered as a minimal effective dose (MED) determined after van der Waerdens X-test.

[5] = in vivo; details: iv
[6] = 2 h, read-out: MePh antag. ED50 2 hr i.p., mice, test substance i.p., 2 hr before methylphenidate 60 mg/kg s.c.
[7] = read-out: MePh antag. ED50 2 hr i.p., mice, test substance i.p., 2 hr before methylphenidate 60 mg/kg s.c.

| Structure (SMILES) | ED50 [1, 6] | ED50 [2] | ED50 [3] | MED Grid Shock [4] | LD50 [5] | Ratio catalep./Amphet. [3] | ED50 [1, 7] | MePh antag. ED50 2 hr i.p. ([1]; mice, test substance i.p., 2 hr before methylphenidate 60 mg/kg s.c.) |
| --- | --- | --- | --- | --- | --- | --- | --- | --- |
| O=C1NCCN1CCN1CCN(C2CC(c3ccc(F)cc3)c3ccc(F)cc32)CC1 (stereo not shown) [Lu 17-045] | > 40 mg/kg | > 80 mg/kg | > 80 mg/kg | 2.5 | – | – | – | – |
| CC(C)c1ccc2c(c1)C(N1CCN(CCO)CC1)CC2c1ccc(F)cc1 (stereo not shown) [Lu 18-020] | 4.4 mg/kg | 9.4 mg/kg | 7.8 mg/kg | 5 | 57 mg/kg | 0.8 | – | – |
| CSc1ccc2c(c1)[C@H](N1CCN(CCO)CC1)C[C@H]2c1ccc(F)cc1 (relative stereo) [Lu 17-053] | 1.3 mg/kg | 9.1 mg/kg | 6.2 mg/kg | 2.5 | 68 mg/kg | – | – | – |
| CS(=O)(=O)c1ccc2c(c1)C(N1CCN(CCO)CC1)CC2c1ccc(F)cc1 (stereo not shown) [Lu 18-041] | 10 mg/kg | – | – | 5 | > 160 mg/kg | – | – | – |
| Fc1ccc(C2CC(N3CCN(CC4CC4)CC3)c3cc(F)ccc32)cc1 (stereo not shown) [Lu 18-157, 1-cyclopropylmethyl-4-(3-(4'-fluorophenyl)-6-fluoro-1-indanyl)piperazine] | 5 mg/kg | – | – | – | 68 mg/kg | – | – | – |
| COc1ccc2c3c1O[C@H]1[C@@H](O)C=C[C@H]4[C@@H](C2)N(C)CC[C@@]341 [codeine, reference compound] | – | – | – | 20 | 110 mg/kg | – | > 20 mg/kg | – |
| Fc1ccc(C2CC(N3CCN(CC=Cc4ccccc4)CC3)c3cc(F)ccc32)cc1 (stereo not shown) [Lu 18-162, 1-(3-phenyl-2-propenyl)-4-(3-(4'-fluorophenyl)-6-fluoro-1-indanyl)piperazine] | 29 mg/kg | – | – | – | – | – | – | – |
| Cc1ccc2c(c1)C(N1CCN(CC3CC3)CC1)CC2c1ccc(F)cc1 (stereo not shown) [Lu 17-130] | 5 mg/kg | > 40 mg/kg | > 40 mg/kg | 5 | – | – | – | – |
| OCCN1CCN([C@@H]2C[C@@H](c3ccc(F)cc3)c3cc(F)ccc32)CC1 (relative stereo) [Lu 17-075] | 6 mg/kg | > 40 mg/kg | > 40 mg/kg | 2.5 | 80 mg/kg | – | – | – |
| Fc1ccc(C2CC(N3CCN(CCc4ccccc4)CC3)c3cc(F)ccc32)cc1 (stereo not shown) [Lu 18-159] | 15 mg/kg | – | – | – | 40 mg/kg | – | – | – |
| CN1CCN(C2CC(c3ccc(F)cc3)c3ccc(C(F)(F)F)cc32)CC1 (stereo not shown) [Lu 18-023] | 1.1 mg/kg | 0.2 mg/kg | 0.4 mg/kg | 1.25 | 94 mg/kg | 2 | – | – |
| Fc1ccc(C2CC(N3CCN(CC4CCCCC4)CC3)c3cc(F)ccc32)cc1 (stereo not shown) [Lu 17-100] | 4 mg/kg | > 40 mg/kg | 40 mg/kg | 10 | 93 mg/kg | – | – | – |
| CC(O)CN1CCN(C2CC(c3ccc(F)cc3)c3ccc(F)cc32)CC1 (stereo not shown) [Lu 17-143, 1-(2-hydroxy-1-propyl)-4-(3-(4'-fluorophenyl)-6-fluoro-1-indanyl)piperazine] | 1.2 mg/kg | 5.4 mg/kg | 16.6 mg/kg | < 1.3 | 130 mg/kg | 3.1 | – | – |
| OCC(CO)N1CCN(C2CC(c3ccc(F)cc3)c3ccc(C(F)(F)F)cc32)CC1 (stereo not shown) [Lu 18-185] | 0.2 mg/kg | 0.3 mg/kg | 0.3 mg/kg | – | – | – | – | – |
| CCC(=O)O[C@](Cc1ccccc1)(c1ccccc1)[C@H](C)CN(C)C [dextropropoxyphene, reference compound] | – | – | – | 20 | 34 mg/kg | – | > 20 mg/kg | – |
| OCCN1CCN([C@@H]2C[C@H](c3ccc(F)cc3)c3ccccc32)CC1 (relative stereo) [Lu 17-124] | > 40 mg/kg | – | – | 5 | – | – | – | – |
| OCCCCN1CCN(C2CC(c3ccc(F)cc3)c3ccc(C(F)(F)F)cc32)CC1 (stereo not shown) [Lu 18-182] | 0.2 mg/kg | 0.2 mg/kg | 0.2 mg/kg | – | 56 mg/kg | – | – | – |
| CN1CC[C@]23c4c5ccc(O)c4O[C@H]2[C@@H](O)C=C[C@H]3[C@H]1C5 [morfine, reference compound] | – | – | – | 2.5 | – | – | – | > 40 mg/kg |
| OCCN1CCN([C@@H]2C[C@H](c3ccc(F)cc3)c3ccc(Cl)cc32)CC1 (relative stereo) [Lu 17-120] | 3.2 mg/kg | – | > 20 mg/kg | 2.5 | – | – | – | – |
| O=C(CCCN1CCN(C2CC(c3ccc(F)cc3)c3ccc(F)cc32)CC1)c1ccc(F)cc1 (stereo not shown) [Lu 17-145] | > 40 mg/kg | – | – | 5 | – | – | – | – |
| O=C1OCCN1CCN1CCN(C2CC(c3ccc(F)cc3)c3ccc(F)cc32)CC1 (stereo not shown) [Lu 17-039] | 9.1 mg/kg | 51 mg/kg | > 80 mg/kg | – | 113 mg/kg | – | – | – |
| CSc1ccc2c(c1)[C@H](N1CCN(C)CC1)C[C@@H]2c1ccc(F)cc1 (relative stereo) [Lu 17-056] | 20 mg/kg | – | – | 5 | – | – | – | – |
| OCCN1CCN([C@@H]2C[C@@H](c3ccccc3)c3ccccc32)CC1 (relative stereo) [Lu 17-061] | > 40 mg/kg | – | – | 10 | – | – | – | – |
| OCC(CO)N1CCN(C2CC(c3ccc(F)cc3)c3ccc(F)cc32)CC1 (stereo not shown) [Lu 18-134, 1-(1,3-dihydroxy-2-propy)-4-(3-(4'-fluorophenyl)-6-fluoro-1-indanyl)piperazine] | 1.9 mg/kg | 11.7 mg/kg | 57 mg/kg | < 5 | – | 4.9 | – | – |
| CN1CCN(C2CC(c3ccc(F)cc3)c3cc(F)ccc32)CC1 (stereo not shown) [Lu 17-071] | > 40 mg/kg | – | 31 mg/kg | 10 | – | – | – | – |
| OCCN1CCN([C@@H]2C[C@@H](c3ccc(F)cc3)c3cc(Cl)ccc32)CC1 (relative stereo) [Lu 17-116] | > 40 mg/kg | – | – | 10 | – | – | – | – |
| CN1CCN([C@@H]2C[C@@H](c3ccccc3)c3ccccc32)CC1 (relative stereo) [Lu 17-091] | > 40 mg/kg | – | – | 10 | – | – | – | – |
